Assays:
Assay in all cases: Test E flooded paddy water application
Format in all cases: in vivo
[1] = tested on: ducksalad (Heteranthera limosa); conditions: Flood, 21 days, scale 0 to 100 (0 no effect, 100 complete control); for Plant response rating, Ducksalad: 16 g ai/ha
Procedure, shortened: (§1)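 Weeds sown in sterilized Tama silt loam (2.6% organic matter), greenhouse 29.5/26.7° C, 16-h photoperiod; at 2.0–2.5-leaf stage pots flooded to 3 cm and compound added to paddy water. Visual rating vs untreated controls after 21 days, 0 (no effect) to 100 (complete control).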

[2] = tested on: early watergrass (Echinochloa oryzoides); conditions: Flood, 21 days, scale 0 to 100 (0 no effect, 100 complete control)
Procedure, shortened: as §1

[3] = tested on: junglerice (Echinochloa colona); conditions: Flood, 21 days, scale 0 to 100 (0 no effect, 100 complete control)
Procedure, shortened: as §1

[4] = tested on: smallflower umbrella sedge (Cyperus difformis); conditions: Flood, 21 days, scale 0 to 100 (0 no effect, 100 complete control)
Procedure, shortened: as §1

[5] = tested on: water seeded rice seedlings (Oryza sativa cv. ‘Japonica-M202’); conditions: Flood, 21 days, scale 0 to 100 (0 no effect, 100 complete control)
Procedure, shortened: as §1

| Structure (SMILES) | Ducksalad plant response rating ([1]; 32 g ai/ha) | Ducksalad plant response rating ([1]; 64 g ai/ha) | Ducksalad plant response rating ([1]; 125 g ai/ha) | Ducksalad plant response rating ([1]; 250 g ai/ha) | Plant response rating, Ducksalad [1] | Watergrass, Early plant response rating ([2]; 64 g ai/ha) | Watergrass, Early plant response rating ([2]; 125 g ai/ha) | Watergrass, Early plant response rating ([2]; 250 g ai/ha) | Plant response rating, Watergrass, Early ([2]; 16 g ai/ha) | Junglerice plant response rating ([3]; 64 g ai/ha) | Junglerice plant response rating ([3]; 125 g ai/ha) | Junglerice plant response rating ([3]; 250 g ai/ha) | Plant response rating, Junglerice ([3]; 16 g ai/ha) | Sedge, Umbrella plant response rating ([4]; 64 g ai/ha) | Sedge, Umbrella plant response rating ([4]; 125 g ai/ha) | Sedge, Umbrella plant response rating ([4]; 250 g ai/ha) | Plant response rating, Sedge, Umbrella ([4]; 16 g ai/ha) | Rice, Water Seeded plant response rating ([5]; 64 g ai/ha) | Rice, Water Seeded plant response rating ([5]; 125 g ai/ha) | Rice, Water Seeded plant response rating ([5]; 250 g ai/ha) | also measured |
| --- | --- | --- | --- | --- | --- | --- | --- | --- | --- | --- | --- | --- | --- | --- | --- | --- | --- | --- | --- | --- | --- |
| Cc1ccc(-c2nc(N)c(Cl)c(C(=O)O)n2)cc1 [Compound 91] | 100 | 100 | 100 | 100 | 100 | 0 | 0 | 0 | 0 | 0 | 0 | 70 | 0 | 30 | 100 | 100 | 0 | 10 | 10 | 20 | Watergrass, Early plant response rating ([2]; 32 g ai/ha): 0; Junglerice plant response rating ([3]; 32 g ai/ha): 0; Sedge, Umbrella plant response rating ([4]; 32 g ai/ha): 0; Rice, Water Seeded plant response rating ([5]; 32 g ai/ha): 0; Plant response rating, Rice, Water Seeded ([5]; 16 g ai/ha): 0 |
| COC(=O)c1nc(-c2ccc(I)cc2)nc(N)c1Br [Compound 128] | 100 | 100 | 100 | 100 | 95 | 0 | 0 | 0 | 0 | 0 | 0 | 10 | 0 | 70 | 100 | 100 | 0 | 0 | 0 | 0 | Watergrass, Early plant response rating ([2]; 32 g ai/ha): 0; Junglerice plant response rating ([3]; 32 g ai/ha): 0; Sedge, Umbrella plant response rating ([4]; 32 g ai/ha): 60; Rice, Water Seeded plant response rating ([5]; 32 g ai/ha): 0; Plant response rating, Rice, Water Seeded ([5]; 16 g ai/ha): 0 |
| COC(=O)c1nc(-c2ccc(Br)cc2)nc(N)c1Br [Compound 129] | 100 | 100 | 100 | 100 | 100 | 0 | 0 | 0 | 0 | 0 | 0 | 0 | 0 | 80 | 100 | 100 | 0 | 0 | 0 | 0 | Plant response rating, Watergrass, Early ([2]; 32 g ai/ha): 0; Plant response rating, Junglerice ([3]; 32 g ai/ha): 0; Plant response rating, Sedge, Umbrella ([4]; 32 g ai/ha): 60; Plant response rating, Rice, Water Seeded ([5]; 16 g ai/ha): 0; Plant response rating, Rice, Water Seeded ([5]; 32 g ai/ha): 0 |

— patent US8802597B2, “Herbicidal pyrimidines” (E I du Pont de Nemours and Company, priority 2003, dated 2014)
